Legend:
Format in all cases: cell-based
P388 Leukaemia = assay: Antitumoral activity, cytotoxicity against P388; conditions: Mus musculus; P388 Leukaemia cells
HT29 (Human Colon) = assay: Antitumoral activity, cytotoxicity against HT29; conditions: HT-29; HT29 (Human Colon) cells
A549 (Human Lung) = assay: Antitumoral activity, cytotoxicity against A549; conditions: A549 (Human Lung) cells
MEL28 (Melanoma) = assay: Antitumoral activity, cytotoxicity against MEL28; conditions: Homo sapiens, SK-MEL-28; MEL28 (Melanoma) cells

Measured: IC50

C=C(CC[C@@H]1C(=C)CC[C@H](Cl)C1(C)C)C(Cl)CN=C(Cl)Cl (stereo partly shown) [Compound 1]
1 µg/mL: P388 Leukaemia
0.1 µg/mL: all other assays above

CC1(C)[C@@H](Cl)[C@@H](O)C[C@]2(C)C/C(=C/C=O)CC[C@@H]12 [Compound 2]
1 µg/mL: all assays above

CC1(C)[C@@H](Cl)CC[C@]2(C)C=C(C=CN=C(Cl)Cl)CC[C@@H]12 [Compound 4]
1 µg/mL: all assays above

CC1(C)[C@@H](Cl)[C@@H](O)C[C@]2(C)C/C(=C\C=O)CC[C@@H]12 [Compound 3]
1 µg/mL: all assays above
